The record followed here is the OligoGym collection.

Several values for one entry are separate records, joined by “and”; a condition that tells them apart may be missing. Equal values may be shown once. HELM strings list units from the 5' end as sugar, base in round brackets, then linkage (d deoxyribose, r ribose, m 2'-O-methyl, p phosphodiester). Methylation of C is not given here. [moe] = 2'-O-(2-methoxyethyl) (MOE); [cEt] = constrained ethyl (cEt); [sp] = phosphorothioate linkage

The series addresses HBV. The conditions noted are these: ASO.

For “RNA1{[moe](A)[sp].[moe](T)[sp].[moe](G)[sp].d(A)[sp].d(G)[sp].d(G)[sp].d(C)[sp].d(A)[sp].d(T)[sp].d(A)[sp].d(G)[sp].d(C)[sp].[moe](A)[sp].[moe](G)[sp].[moe](C)[sp].[moe](A)[sp].[moe](G)}$$$$V2.0”, the target mRNA inhibition (HepG2, 0.07 µM) was 66% and 51%.

Consider “RNA1{[moe](A)[sp].[moe](G)[sp].d(A)[sp].d(A)[sp].d(G)[sp].d(T)[sp].d(C)[sp].d(C)[sp].d(A)[sp].d(C)[sp].d(C)[sp].[moe](A)[sp].[moe](C)[sp].[moe](G)[sp].[moe](A)[sp].[moe](G)[sp].[moe](T)}$$$$V2.0”, for which, under “HepG2, 0.07 µM”, the target mRNA inhibition was 62% and 49%. For “RNA1{[moe](T)[sp].[cEt](A)[sp].[cEt](G)[sp].d(G)[sp].d(C)[sp].d(A)[sp].d(G)[sp].d(A)[sp].d(G)[sp].d(G)[sp].d(T)[sp].d(G)[sp].d(A)[sp].[cEt](A)[sp].[cEt](A)[sp].[moe](A)}$$$$V2.0”, the target mRNA inhibition (HepG2, 0.07 µM) is 31% and 28%. With “RNA1{[moe](C)[sp].[moe](A)[sp].[moe](C)[sp].[moe](T)[sp].[moe](A)[sp].d(G)[sp].d(T)[sp].d(A)[sp].d(A)[sp].d(A)[sp].d(C)[sp].d(T)[sp].d(G)[sp].d(A)[sp].[moe](G)[sp].[moe](C)}$$$$V2.0”, under “HepG2, 0.07 µM”, the target mRNA inhibition is 59% and 60%. Still for that read-out and setting: the figure for “RNA1{[moe](G)[sp].[moe](C)[sp].[moe](A)[sp].[moe](C)[sp].d(T)[sp].d(A)[sp].d(G)[sp].d(T)[sp].d(A)[sp].d(A)[sp].d(A)[sp].d(C)[sp].d(T)[sp].[moe](G)[sp].[moe](A)[sp].[moe](G)[sp].[moe](C)}$$$$V2.0” is 55% and 47%.

Consider “RNA1{[moe](T)[sp].[moe](G)[sp].[moe](A)[sp].[cEt](G)[sp].[cEt](G)[sp].d(C)[sp].d(A)[sp].d(T)[sp].d(A)[sp].d(G)[sp].d(C)[sp].d(A)[sp].[cEt](G)[sp].[cEt](C)[sp].[moe](A)[sp].[moe](G)[sp].[moe](G)}$$$$V2.0”, for which the target mRNA inhibition is, setting by setting: (HepG2, 0.009375 µM) 23%; (HepG2, 0.01875 µM) 4%; (HepG2, 0.0375 µM) 29%; (HepG2, 0.075 µM) 31%; (HepG2, 0.15 µM) 36%; (HepG2, 0.3 µM) 56%. As for “RNA1{[moe](C)[sp].[moe](T)[sp].[moe](G)[sp].[moe](G)[sp].[moe](A)[sp].d(G)[sp].d(C)[sp].d(C)[sp].d(A)[sp].d(C)[sp].d(C)[sp].d(A)[sp].d(G)[sp].d(C)[sp].[moe](A)[sp].[moe](G)}$$$$V2.0”, the target mRNA inhibition (HepG2, 0.07 µM) was 46% and 53%. With “RNA1{[moe](A)[sp].[moe](C)[sp].[moe](T)[sp].[moe](G)[sp].d(G)[sp].d(A)[sp].d(G)[sp].d(C)[sp].d(C)[sp].d(A)[sp].d(C)[sp].d(C)[sp].d(A)[sp].[moe](G)[sp].[moe](C)[sp].[moe](A)[sp].[moe](G)}$$$$V2.0”, the target mRNA inhibition (HepG2, 0.07 µM) was 40% and 41%. For “RNA1{d(C)[sp].d(C)[sp].d(A)[sp].d(A)[sp].d(A)[sp].d(G)[sp].d(C)[sp].d(C)[sp].d(A)[sp].d(C)[sp].d(C)[sp].d(C)[sp].d(A)[sp].d(A)[sp].d(G)[sp].d(G)}$$$$V2.0”, the target mRNA inhibition (HepG2, 0.01875 µM) was 4% and 0%; the target mRNA inhibition (HepG2, 0.0375 µM) was 0%; the target mRNA inhibition (HepG2, 0.075 µM) came to 0%; the target mRNA inhibition (HepG2, 0.15 µM) is 3% and 0%; the target mRNA inhibition (HepG2, 0.3 µM) is 13%. In the case of “RNA1{[moe](G)[sp].[moe](A)[sp].[moe](A)[sp].d(G)[sp].d(C)[sp].d(G)[sp].d(A)[sp].d(A)[sp].d(G)[sp].d(T)[sp].d(G)[sp].d(C)[sp].d(A)[sp].[cEt](C)[sp].[cEt](A)[sp].[cEt](C)}$$$$V2.0”, the target mRNA inhibition (HepG2, 0.07 µM) stood at 67%.

On to “RNA1{[moe](C)[sp].[cEt](C)[sp].[cEt](A)[sp].d(A)[sp].d(T)[sp].d(T)[sp].d(T)[sp].d(A)[sp].d(T)[sp].d(G)[sp].d(C)[sp].d(C)[sp].d(T)[sp].[cEt](A)[sp].[cEt](C)[sp].[moe](A)}$$$$V2.0”, for which, for the setting “HepG2, 0.07 µM”, the target mRNA inhibition was 42% and 18%.
